# In US6362369B1, “Phthalic acid diamide derivatives fluorine-containing aniline compounds as starting material, agricultural and horticultural insecticides, and a method for application of the insecticides” (Nihon Nohyaku Co., Ltd., priority 1997, dated 2002):
# Tests used:
# [1] = test system: diamondback moth (Plutella xylostella); assay: Insecticidal effect on diamondback moth (Test Example 1); assay type: in vivo; settings: for Insecticidal effect, Test Example 1 / Insecticidal effect (Test Example 1), judged from mortality: diamondback moth; for Insecticidal effect on diamondback moth (Test Example 1), judged grade: mortality judged according to the criterion shown in Test Example 1; for Insecticidal effect (Test Example 1), judged from mortality: judged by the criterion of Test Example 1
# Summary of the method: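 Read-out was mortality from hatched-insect counts taken 6 days after the egg-bearing cabbage seedling was immersed, graded by set criteria. Seedlings were air-dried and kept at 25° C after treatment. Groups of 10 insects, in triplicate.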
# [2] = test system: common cutworm (Spodoptera Litura); assay: Insecticidal effect on common cutworm (Test Example 2); assay type: in vivo; settings: 500 ppm, 25° C.; for Insecticidal effect, Test Example 2: cabbage leaf immersed; for Insecticidal effect, Test Example 2 / Insecticidal effect on common cutworm (Test Example 2), judged grade: eight days after inoculation; for Insecticidal effect on common cutworm (Test Example 2), judged grade / Insecticidal effect (Test Example 2), judged from mortality: cabbage leaf dip; for Insecticidal effect on common cutworm (Test Example 2), judged grade: second-instar larvae; for Insecticidal effect (Test Example 2), judged from mortality: 8 days after inoculation
# Method: Insecticidal effect on common cutworm (Spodoptera Litura)
# After air-drying, it was placed in a plastic Petri dish with a diameter of 9 cm and inoculated with second-instar larvae of common cutworm, after which the dish was closed and then allowed to stand in a room thermostated at 25° C. Eight days after the inoculation, the dead and alive were counted. The mortality was calculated according to the following equation and the insecticidal effect was judged according to the criterion shown in Test Example 1. The test was carried out with triplicate groups of 10 insects. [formula]
# [3] = judged by the mortality criterion of Test Example 1
# [4] = second-instar larvae of common cutworm
# [5] = mortality judged by criterion of Test Example 1
# [6] = common cutworm second-instar larvae
smiles,measurement,setting,value
Cc1cc(OC(F)F)c(Cl)cc1NC(=O)c1c(Cl)cccc1C(=O)NC(C)C [compound 245],"Insecticidal effect, Test Example 1",[1]; [3],A (100)
same,"Insecticidal effect, Test Example 2",[2]; [4],D (79-50)
CC(C)NC(=O)c1c(C(=O)Nc2ccc(OC(F)F)cc2C(F)(F)F)cccc1[N+](=O)[O-] [compound 692],"Insecticidal effect on diamondback moth (Test Example 1), judged grade",[1],A (100)
same,"Insecticidal effect on common cutworm (Test Example 2), judged grade",[2],D (79-50)
Cc1cc2c(cc1NC(=O)c1cccc(I)c1C(=O)NC(C)C)OC(F)(F)C2(F)F [compound 1666],"Insecticidal effect (Test Example 1), judged from mortality",[1],A (100)
same,"Insecticidal effect (Test Example 2), judged from mortality",[2]; [4],A (100)
Cc1cc(C(F)(F)C(F)(F)F)ccc1NC(=O)c1cccc(I)c1C(=O)N[C@H](C)CBr [compound 1607],"Insecticidal effect (Test Example 1), judged from mortality",[1],A (100)
same,"Insecticidal effect (Test Example 2), judged from mortality",[2]; [4],A (100)
O=C(Nc1ccc(C(F)(F)C(F)(F)F)cc1F)c1cccc(Cl)c1C(=O)NCc1ccccc1 [compound 1486],"Insecticidal effect (Test Example 1), judged from mortality",[1],A (100)
same,"Insecticidal effect (Test Example 2), judged from mortality",[2]; [4],A (100)
CC(C)NC(=O)c1c(Cl)cccc1C(=O)Nc1ccc(OC(F)F)c(C(F)(F)F)c1 [compound 164],"Insecticidal effect, Test Example 1",[1]; [3],A (100)
same,"Insecticidal effect, Test Example 2",[2]; [4],A (100)
Cc1cc2c(cc1NC(=O)c1cccc(Cl)c1C(=O)NC(C)C)OC(F)(F)C(F)O2 (racemic) [compound 1597],"Insecticidal effect (Test Example 1), judged from mortality",[1],A (100)
same,"Insecticidal effect (Test Example 2), judged from mortality",[2]; [4],A (100)
Cc1cc(C(F)(C(F)(F)F)C(F)(F)F)c(F)cc1NC(=O)c1cccc(I)c1C(=O)NC(C)C [compound 1663],"Insecticidal effect (Test Example 1), judged from mortality",[1],A (100)
same,"Insecticidal effect (Test Example 2), judged from mortality",[2]; [4],A (100)
CC(C)NC(=O)c1ccccc1C(=O)Nc1ccc(SC(F)(F)C(F)F)cc1 [compound 34],"Insecticidal effect, Test Example 1",[1]; [3],A (100)
same,"Insecticidal effect, Test Example 2",[2]; [4],C (89-80)
Cc1cc(OC(F)F)ccc1NC(=O)c1cccc(Cl)c1C(=O)N[C@@H](C)c1ccccc1 [compound 1459],"Insecticidal effect (Test Example 1), judged from mortality",[1],A (100)
same,"Insecticidal effect (Test Example 2), judged from mortality",[2]; [4],A (100)
CC(C)NC(=O)c1c(C(=O)Nc2c(F)cccc2F)cccc1[N+](=O)[O-] [compound 641],"Insecticidal effect on diamondback moth (Test Example 1), judged grade",[1],D (79-50)
same,"Insecticidal effect on common cutworm (Test Example 2), judged grade",[2],D (79-50)
Cc1ccc(Cl)cc1NC(=O)c1ccccc1C(=O)NC(C)(C)C [compound 841],"Insecticidal effect on diamondback moth (Test Example 1), judged grade",[1],A (100)
same,"Insecticidal effect on common cutworm (Test Example 2), judged grade",[2],D (79-50)
Cc1cc(C(F)(C(F)(F)F)C(F)(F)F)ccc1NC(=O)c1cccc(OC(F)(F)F)c1C(=O)NC(C)(C)C [compound 1237],"Insecticidal effect, Test Example 1",[1]; [5],A (100)
same,"Insecticidal effect, Test Example 2",[2]; [6],A (100)
CCN(CC)C(=O)c1c(C(=O)Nc2ccc(C(F)(F)C(F)(F)F)cc2C)ccc(F)c1Cl [compound 1258],"Insecticidal effect, Test Example 1",[1]; [5],A (100)
same,"Insecticidal effect, Test Example 2",[2]; [6],A (100)
CC(C)NC(=O)c1c(C(=O)Nc2ccc(OC(F)F)c(C(F)(F)F)c2)cccc1[N+](=O)[O-] [compound 693],"Insecticidal effect on diamondback moth (Test Example 1), judged grade",[1],A (100)
same,"Insecticidal effect on common cutworm (Test Example 2), judged grade",[2],A (100)
CC(C)NC(=O)c1c(C(=O)Nc2c(Cl)cccc2Cl)cccc1[N+](=O)[O-] [compound 635],"Insecticidal effect on diamondback moth (Test Example 1), judged grade",[1],A (100)
same,"Insecticidal effect on common cutworm (Test Example 2), judged grade",[2],D (79-50)
CC(C)NC(=O)c1ccccc1C(=O)Nc1ccc(F)c(F)c1 [compound 43],"Insecticidal effect, Test Example 1",[1]; [3],B (99-90)
same,"Insecticidal effect, Test Example 2",[2]; [4],D (79-50)
Cc1c(NC(=O)c2cccc([N+](=O)[O-])c2C(=O)NC(C)C)ccc([N+](=O)[O-])c1C [compound 709],"Insecticidal effect on diamondback moth (Test Example 1), judged grade",[1],A (100)
same,"Insecticidal effect on common cutworm (Test Example 2), judged grade",[2],A (100)
Cc1cc(OC(F)(F)C(F)OC(F)(F)F)ccc1NC(=O)c1c(Cl)cccc1C(=O)NC(C)C (stereo not shown) [compound 244],"Insecticidal effect, Test Example 1",[1]; [3],A (100)
same,"Insecticidal effect, Test Example 2",[2]; [4],C (89-80)
C#CCNC(=O)c1c(C(=O)Nc2cc(Cl)ccc2C)cccc1[N+](=O)[O-] [compound 869],"Insecticidal effect on diamondback moth (Test Example 1), judged grade",[1],A (100)
same,"Insecticidal effect on common cutworm (Test Example 2), judged grade",[2],D (79-50)
CC(C)NC(=O)c1cccc(Cl)c1C(=O)Nc1ccc(OC(F)F)c(C(F)(F)F)c1 [compound 254],"Insecticidal effect, Test Example 1",[1]; [3],A (100)
same,"Insecticidal effect, Test Example 2",[2]; [4],A (100)
Cc1cc(C(F)(C(F)(F)F)C(F)(F)F)c(F)cc1NC(=O)c1cccc(I)c1C(=O)NC(C)(C)C [compound 1664],"Insecticidal effect (Test Example 1), judged from mortality",[1],A (100)
same,"Insecticidal effect (Test Example 2), judged from mortality",[2]; [4],A (100)
Cc1cc(C(F)(F)C(F)(F)F)ccc1NC(=O)c1ccc(F)c(Cl)c1C(=O)NC(C)(C)C [compound 1257],"Insecticidal effect, Test Example 1",[1]; [5],A (100)
same,"Insecticidal effect, Test Example 2",[2]; [6],A (100)
CC(C)NC(=O)c1c(C(=O)Nc2c(F)c(F)c(F)c(F)c2F)cccc1[N+](=O)[O-] [compound 646],"Insecticidal effect on diamondback moth (Test Example 1), judged grade",[1],A (100)
same,"Insecticidal effect on common cutworm (Test Example 2), judged grade",[2],D (79-50)
Cc1c(NC(=O)c2cccc(I)c2C(=O)NC(C)C)ccc(C(F)(C(F)(F)F)C(F)(F)F)c1C [compound 1689],"Insecticidal effect (Test Example 1), judged from mortality",[1],A (100)
same,"Insecticidal effect (Test Example 2), judged from mortality",[2]; [4],A (100)
Cc1cc(C(F)(F)C(F)(F)F)ccc1NC(=O)c1cccc(C(F)(F)F)c1C(=O)NC(C)C [compound 1184],"Insecticidal effect, Test Example 1",[1]; [5],A (100)
same,"Insecticidal effect, Test Example 2",[2]; [6],A (100)
O=C(Nc1ccc(C(F)(F)C(F)(F)F)cc1Cl)c1cccc(Cl)c1C(=O)NCc1ccccc1 [compound 1487],"Insecticidal effect (Test Example 1), judged from mortality",[1],A (100)
same,"Insecticidal effect (Test Example 2), judged from mortality",[2]; [4],A (100)
CC(C)NC(=O)c1ccccc1C(=O)Nc1ccc([N+](=O)[O-])cc1 [compound 22],"Insecticidal effect, Test Example 1",[1]; [3],A (100)
same,"Insecticidal effect, Test Example 2",[2]; [4],D (79-50)
CC(C)NC(=O)c1c(I)cccc1C(=O)Nc1cc2c(cc1I)OC(F)(F)O2 [compound 1660],"Insecticidal effect (Test Example 1), judged from mortality",[1],A (100)
same,"Insecticidal effect (Test Example 2), judged from mortality",[2]; [4],A (100)
CC(C)NC(=O)c1c(I)cccc1C(=O)Nc1ccc(I)cc1C(C)C [compound 965],"Insecticidal effect, Test Example 1",[1]; [5],A (100)
same,"Insecticidal effect, Test Example 2",[2]; [6],C (89-80)
CC(C)NC(=O)c1c(I)cccc1C(=O)Nc1cc2c(cc1Cl)OC(F)(F)C(F)O2 (racemic) [compound 1601],"Insecticidal effect (Test Example 1), judged from mortality",[1],A (100)
same,"Insecticidal effect (Test Example 2), judged from mortality",[2]; [4],A (100)
CC(C)NC(=O)c1c(C(=O)Nc2ccc(Br)cc2)cccc1[N+](=O)[O-] [compound 591],"Insecticidal effect on diamondback moth (Test Example 1), judged grade",[1],A (100)
same,"Insecticidal effect on common cutworm (Test Example 2), judged grade",[2],D (79-50)
Cc1cc(Oc2c(F)c(F)c(F)c(F)c2F)ccc1NC(=O)c1cccc([N+](=O)[O-])c1C(=O)NC(C)C [compound 725],"Insecticidal effect on diamondback moth (Test Example 1), judged grade",[1],A (100)
same,"Insecticidal effect on common cutworm (Test Example 2), judged grade",[2],A (100)
CCN(CC)C(=O)c1c(C(=O)Nc2ccc(C(F)(F)C(F)(F)F)cc2C)cccc1C(F)(F)F [compound 1186],"Insecticidal effect, Test Example 1",[1]; [5],A (100)
same,"Insecticidal effect, Test Example 2",[2]; [6],A (100)
CCN(CC)C(=O)c1c(C(=O)Nc2ccc(OC(F)(F)F)cc2C)cccc1C(F)(F)F [compound 1185],"Insecticidal effect, Test Example 1",[1]; [5],A (100)
same,"Insecticidal effect, Test Example 2",[2]; [6],C (89-80)
